According to patent US12568982B2, “Systems for retaining potency in an infused beverage” (Vertosa Inc., priority 2020, dated 2026):

Tests used:
Assay type in all cases: physicochemical
[1] = Terpene oxidation with ascorbic acid or EDTA at 40° C.
Text: However, nearly all terpenes can be oxidized and some can oxidize faster than others. When terpenes are put into a ready-to-drink beverage, the chemical degradation that can be caused by oxidation needs to be considered. When the oxidation happens, it not only diminishes the designed effect of the product, but it also creates unknown by-products that can be potentially harmful to consume. Oxidation rate of α-pinene and limonene was compared with the addition of ascorbic acid and EDTA.

[2] = THC potency loss in glass bottle with child-resistant cap at room temperature
Text: The concentration of the antioxidant was studied to ensure the antioxidant will last long enough to protect against THC degradation.

[3] = Water-soluble antioxidant standard protocol, THC potency decay at 40° C.; settings: for THC potency loss at 10 weeks with combined antioxidants: Polysorbate Emulsion 1
Procedure: The study was done with standard protocol: 20 mg THC nanoemulsion was diluted in 12 oz purified water into an amber glass bottle which was finished with a crown cap. The nanoemulsion was produced using polysorbate as an emulsifier with 50 nm droplet size (See Emulsion 1 from Table 3). The pH of the solution was adjusted to 4.0. The water-soluble antioxidants were added into the final solution at 0.005% (50 ppm).
All the testing above was based on the THC nanoemulsion made with polysorbate as an emulsifier (see Emulsion 1 from Table 3). Two other THC emulsions were produced with polyglycerol and Q-Naturale (see Emulsion 3 and 4 from […]).
The three oil soluble antioxidants were all targeted at 0.01% (100 ppm).

[4] = Oil-phased versus water-phased antioxidants, THC potency loss at 40° C.; settings: polysorbate emulsion, antioxidant 0.01%, glass bottle with crown cap
Text: There are two major types of antioxidants depending on their solubility: oil-phased antioxidants and water-phased antioxidants. The oil-phased antioxidants usually exist within the emulsion droplet and water-phased antioxidants are usually added during beverage production. It was believed that both types of antioxidants should work since they follow similar mechanisms: both function as a sacrificial agent to be oxidized prior to oxidation of the API, or they function as chelating agents where they scavenge the metal ions that catalyze oxidation. […] An emulsion was produced using polysorbate, shown as Emulsion 1 in Table 3. The antioxidant concentration was targeted at 0.01%.

[5] = Contact angle of liquids on aluminum can liner (hydrophobicity study); settings: Krüss contact angle machine; flattened liner side of aluminum can
Procedure: For hydrophobicity studies, a Krüss contact angle machine was used. An aluminum can was cut in half, and the flattened liner side was used as the testing surface. The contact angle of water, coconut oil, coconut oil+THC at different ratios, and coconut oil+CBD at different ratios on the liner was measured.

[6] = oil-soluble antioxidant at 100 ppm + 10 ppm EDTA
[7] = oil-soluble antioxidant at 100 ppm + 50 ppm Ascorbic Acid
[8] = 20 mg THC polysorbate nanoemulsion in 12 oz water, pH 4.0, amber glass, 40° C., antioxidant 0.005% (50 ppm)

In the case of `C=CC(C)(O)CCC=C(C)C` (stereo not drawn) [linalool], the “2-weeks potency loss at 40° C.” value ([1]; 10 ppm EDTA) is reported as 9%, the “2-weeks potency loss at 40° C.” value ([1]; 50 ppm ascorbic acid) is reported as 6% and the “2-weeks potency loss at 40° C.” value ([1]; No antioxidant) is reported as 46%.
In the case of `CCCCCc1cc(O)c2c(c1)OC(C)(C)[C@@H]1CCC(C)=C[C@@H]21` [THC, Tetrahydrocannabinol], the “THC potency loss %” value ([2]; No antioxidant, 6 months at room temperature, child resistant cap type 1) is reported as 56% and the “THC potency loss %” value ([2]; No antioxidant, 12 months at room temperature, child resistant cap type 1) is reported as 78%.
In the case of `CCCOC(=O)c1cc(O)c(O)c(O)c1` [Propyl Gallate, propyl gallate], the “THC potency loss at 10 weeks with combined antioxidants” value (shortened to “THC potency loss at 10 weeks”) [3, 6] is reported as 6% and the “THC potency loss at 10 weeks” value [3, 7] is reported as 7%.
For `O=C(O)c1cc(O)c(O)c(O)c1` [Gallic acid], the “THC loss at 4 weeks” value [3, 8] was 10% and the “THC loss at 10 weeks” value [3, 8] was 27%.
For `O=C1O[C@H]([C@@H](O)CO)C(O)=C1O` [Ascorbic Acid, ascorbic acid], the “THC potency loss %” value ([2]; Ascorbic acid 20 ppm, 6 months at room temperature) was 21%, the “THC potency loss %” value ([2]; Ascorbic acid 20 ppm, 12 months at room temperature) was 35% and the “THC potency loss %” value ([2]; Ascorbic acid 50 ppm, 6 months at room temperature) was 7%. The “THC potency loss %” value ([2]; Ascorbic acid 50 ppm, 12 months at room temperature) was 10%, the “THC potency loss %” value ([2]; Ascorbic acid 200 ppm, 6 months at room temperature) was 3% and the “THC potency loss %” value ([2]; Ascorbic acid 200 ppm, 12 months at room temperature) was 7%. For the same molecule, the “THC loss at 10 weeks” value [4] was 17%.
With `O` [Water] the “Contact Angle on Liner” value [5] was 85°.
In the case of `C=CC(=C)CCC=C(C)C` [myrcene], the “2-weeks potency loss at 40° C.” value ([1]; 10 ppm EDTA) is reported as 6%, the “2-weeks potency loss at 40° C.” value ([1]; 50 ppm ascorbic acid) is reported as 3% and the “2-weeks potency loss at 40° C.” value ([1]; No antioxidant) is reported as 38%.
For `O=C(O)CN(CCN(CC(=O)O)CC(=O)O)CC(=O)O` [EDTA, Ethylenediaminetetraacetic acid], the “THC potency loss %” value ([2]; EDTA 5 ppm, 6 months at room temperature) was 16%, the “THC potency loss %” value ([2]; EDTA 5 ppm, 12 months at room temperature) was 39% and the “THC potency loss %” value ([2]; EDTA 10 ppm, 6 months at room temperature) was 8%. For the same molecule, the “THC potency loss %” value ([2]; EDTA 10 ppm, 12 months at room temperature) was 12%, the “THC potency loss %” value ([2]; EDTA 20 ppm, 6 months at room temperature) was 6% and the “THC potency loss %” value ([2]; EDTA 20 ppm, 12 months at room temperature) was 9%.
In the case of tocopherol [Vitamin E (tocopherol)], the “THC potency loss at 10 weeks” value [3, 6] is reported as 7%, the “THC potency loss at 10 weeks” value [3, 7] is reported as 6% and the “THC loss at 4 weeks” value [4] is reported as 25%. For the same molecule, the “THC loss at 10 weeks” value [4] was 46%.
For `CC1=CCC2CC1C2(C)C` (stereo not drawn) [α-pinene], the “2-weeks potency loss at 40° C.” value ([1]; 10 ppm EDTA) was 6%, the “2-weeks potency loss at 40° C.” value ([1]; 50 ppm ascorbic acid) was 4% and the “2-weeks potency loss at 40° C.” value ([1]; No antioxidant) was 57%.
In the case of `C=C(C)[C@H]1CC=C(C)CC1` [limonene], the “2-weeks potency loss at 40° C.” value ([1]; 10 ppm EDTA) is reported as 8%, the “2-weeks potency loss at 40° C.” value ([1]; 50 ppm ascorbic acid) is reported as 7% and the “2-weeks potency loss at 40° C.” value ([1]; No antioxidant) is reported as 68%.
